{
  "source": "paper PMC8880783",
  "about": "“Structure and electron transfer pathways of an electron-bifurcating NiFe-hydrogenase” (Science Advances, 2022)",
  "key": {"NiFe-HydABCSL [1]": {"target": "T1, NiFe-HydABCSL (Acetomicrobium mobile, UniProt I4BYB5)", "T1 construct": "gene Anamo_1678; native purification from A. mobile, untagged; dimer of heteropentamers (~500 kDa by SEC; 233 kDa per pentamer); with Electron-bifurcating NiFe-hydrogenase subunit HydA; Electron-bifurcating NiFe-hydrogenase subunit HydC (NADH:ubiquinone oxidoreductase 24 kD subunit); NiFe-hydrogenase small subunit HydS; NiFe-hydrogenase large subunit HydL", "experiment": "H2-dependent bifurcation assay, Fd reduction at […] nm", "assay_type": "biochemical", "conditions": "100% H2, 40 µM A. mobile Fd, 1 mM NAD, enzyme retains about 0.35 FMN per mole"}, "NiFe-HydABCSL [2]": {"target": "T1, NiFe-HydABCSL", "experiment": "cryo-EM structure of complex, […] Å", "assay_type": "binding", "conditions": "100 µM FMN with 100 µM NADH and 10 µM A. mobile Fd; site in HydB Rossmann fold, next to B1 [4Fe-4S] cluster; stacked on FMN in HydB; modelled as NAD(H)"}, "NiFe-HydABCSL [3]": {"target": "T1, NiFe-HydABCSL", "experiment": "H2-dependent bifurcation assay, simultaneous Fd and NAD reduction", "assay_type": "biochemical", "conditions": "100% H2, 40 µM A. mobile Fd, 10 µM FMN, 1 mM NAD"}, "[4]": {"target": "A. mobile NiFe-HydABCSL hydrogenase (heteropentamer) (A. mobile (endogenous in A. mobile cells))", "experiment": "cryo-EM structure; single-particle cryo-EM of the enzyme as purified, flavin-free apo state, C2 symmetry, 3.2 Å"}, "[5]": {"target": "A. mobile NiFe-HydABCSL hydrogenase (heteropentamer) (A. mobile (endogenous in A. mobile cells))", "experiment": "SEC; HiLoad Superdex 200 prepgrade XK 16/60, 25 mM tris pH 8.0, 300 mM NaCl, 5% glycerol, 2.5% trehalose, anaerobic; decamer to pentamers"}},
  "data": [
    {"molecule": "Cc1cc2nc3c(=O)[nH]c(=O)nc-3n(C[C@H](O)[C@H](O)[C@H](O)COP(=O)(O)OP(=O)(O)OC[C@H]3O[C@@H](n4cnc5c(N)ncnc54)[C@H](O)[C@@H]3O)c2cc1C", "note": "[FAD]", "values": [
      {"measurement": "% stimulation", "setting": "NiFe-HydABCSL [1]; FAD concentration not given", "value": "~ 10%"}
    ]},
    {"molecule": "Cc1cc2nc3c(=O)[nH]c(=O)nc-3n(C[C@H](O)[C@H](O)[C@H](O)COP(=O)(O)O)c2cc1C", "note": "[FMN]", "values": [
      {"measurement": "% stimulation", "setting": "NiFe-HydABCSL [1]; 10 µM FMN", "value": "~ 35%"}
    ]},
    {"molecule": "NC(=O)C1=CN([C@@H]2O[C@H](COP(=O)(O)OP(=O)(O)OC[C@H]3O[C@@H](n4cnc5c(N)ncnc54)[C@H](O)[C@@H]3O)[C@@H](O)[C@H]2O)C=CC1", "note": "[NADH]", "values": [
      {"measurement": "structure", "setting": "NiFe-HydABCSL [2]", "value": "FMN and NADH had well-defined densities in HydB"}
    ]},
    {"molecule": "NC(=O)c1ccc[n+]([C@@H]2O[C@H](COP(=O)(O)OP(=O)(O)OC[C@H]3O[C@@H](n4cnc5c(N)ncnc54)[C@H](O)[C@@H]3O)[C@@H](O)[C@H]2O)c1", "note": "[NAD]", "values": [
      {"measurement": "turnover", "setting": "NiFe-HydABCSL [3]", "value": "NiFe-HydABCSL reduced the Fd only if NAD was also added"}
    ]},
    {"molecule": "A. mobile NiFe-HydABCSL hydrogenase (heteropentamer) (complex)", "values": [
      {"measurement": "stoichiometry N", "setting": "[4]", "value": 2},
      {"measurement": "stoichiometry N", "setting": "[5]", "value": 2}
    ]}
  ]
}
